Assay results taken from ChEMBL document CHEMBL3580595, “Design, synthesis and biological evaluation of novel trimethylpyrazine-2-carbonyloxy-cinnamic acids as potent cardiovascular agents” (Medchemcomm, 2014).

What was measured:
[1] = Anti-platelet activity in rabbit platelet-rich plasma assessed as inhibition of ADP-induced platelet aggregation at 25 uM incubated for 5 mins at 37 degC by aggregometry; type: functional; conditions: Oryctolagus cuniculus
[2] = Anti-platelet activity in rabbit platelet-rich plasma assessed as inhibition of ADP-induced platelet aggregation at 100 uM incubated for 5 mins at 37 degC by aggregometry; type: functional; conditions: Oryctolagus cuniculus
[3] = Cytoprotective activity against H2O2-induced cytotoxicity in human EAhy926 cells at 12.5 uM pre-incubated for 24 hrs before H2O2 challenge for 12 hrs by MTT assay; type: functional, EA.hy 926
[4] = Cytoprotective activity against H2O2-induced cytotoxicity in human EAhy926 cells at 100 uM pre-incubated for 24 hrs before H2O2 challenge for 12 hrs by MTT assay; type: functional, EA.hy 926
[5] = Anti-platelet activity in rabbit platelet-rich plasma assessed as inhibition of ADP-induced platelet aggregation incubated for 5 mins at 37 degC by aggregometry; type: functional; conditions: Oryctolagus cuniculus
[6] = Anti-platelet activity in rabbit platelet-rich plasma assessed as inhibition of ADP-induced platelet aggregation at 50 uM incubated for 5 mins at 37 degC by aggregometry; type: functional; conditions: Oryctolagus cuniculus
[7] = Cytoprotective activity against H2O2-induced cytotoxicity in human EAhy926 cells at 50 uM pre-incubated for 24 hrs before H2O2 challenge for 12 hrs by MTT assay; type: functional, EA.hy 926
[8] = Potency index, ratio of EC50 for lipoic acid to EC50 for test compound for cytoprotective activity against H2O2-induced cytotoxicity in human EAhy926 cells pre-incubated for 24 hrs before H2O2 challenge for 12 hrs by MTT assay; type: functional
[9] = Cytoprotective activity against H2O2-induced cytotoxicity in human EAhy926 cells at 25 uM pre-incubated for 24 hrs before H2O2 challenge for 12 hrs by MTT assay; type: functional, EA.hy 926
[10] = Cytoprotective activity against H2O2-induced cytotoxicity in human EAhy926 cells pre-incubated for 24 hrs before H2O2 challenge for 12 hrs by MTT assay; type: functional, cell-based; conditions: EA.hy 926
[11] = Anti-platelet activity in rabbit platelet-rich plasma assessed as inhibition of ADP-induced platelet aggregation at 12.5 uM incubated for 5 mins at 37 degC by aggregometry; type: functional; conditions: Oryctolagus cuniculus

Row | SMILES | inhibition at 25 µM [1] [%] | inhibition at 100 µM [2] [%] | Activity [3] [%] | Activity [4] [%] | IC50 [5] [µM] | inhibition at 50 µM [6] [%] | Activity [7] [%] | Ratio EC50 [8] | Activity [9] [%] | EC50 [10] [µM] | inhibition at 12.5 µM [11] [%]
1 | CCOC(=O)/C=C/c1ccc(OC(=O)c2nc(C)c(C)nc2C)c(O)c1 | 36.4 | 58.4 | 75.7 | 375.3 | 77.4 | 37.9 | 210.8 | 40 | 207 | 1.7 | 22
2 | Cc1nc(C)c(C)nc1C [LIGUSTRAZINE] | 8.6 | 19.6 | 11.4 | 40.9 | 265 | 15.3 | 22.1 | – | 13.6 | 83.4 | 3.4
